Test results as given in US20100286028A1, “USE OF A PEPTIDE AS A THERAPEUTIC AGENT” (priority 2007, published 2010).
No end group written: not given here.

Experiments:
HIV-1IIIB = assay: HIV-1 antiviral assay in CEM-SS cells; conditions: peptides 10 micrograms per ml; CEM-SS cells plus HIV-1IIIB; MTS readout 6 days post-infection
HCMV strain AD169 = assay: HCMV plaque formation assay in MRC-5 cells; conditions: peptides 10 micrograms per ml, 7-10 days
[1] = system: hepatitis B virus (HBV) ayw strain; assay: HBV experimental assay system (HepG2-2.2.15, TaqMan PCR of secreted HBV DNA); assay type: cell-based; conditions: 10 micrograms per ml, six days, HBV DNA by TaqMan PCR, combination 0.95 mole peptide 1 and 1.05 mole peptide 2
Streptococcus pneumoniae = Streptococcus pneumoniae assay; assay type: cell-based; conditions: 10 micrograms per ml; 5x10^5 CFU/mL; read visually; combination 0.95 mole peptide 1 and 1.05 mole peptide 2 and all other molar ratios from 1:100 to 100:1
murine spleen cells = assay: Th1/Th2 cytokine profiling assay; assay type: cell-based, Balb/c mice; conditions: 10 micrograms per ml, Ovalbumin-restimulated spleen cells, 72 hours
Text: The Balb/c mice (originated in 1923, it is a popular strain and is used in many different research disciplines. Also classified as an inbred from the production of 20 or more successive brother-sister matings, the Balb/c mouse is albino and small in size) were immunized on Days 1, 15, and 29 with Ovalbumin (Ovalbumin is the main protein found in egg white, commonly used to stimulate an immunological reaction in test animals) in PBS (5 micrograms/injection). On day 50, spleens of the mice were harvested (3 weeks after last boost with Ovalbumin). […] Thereafter, additional Ovalbumin was added to the cells at 10 micrograms/ml for in vitro restimulation of the cells. 72 hours later, cell supernatants were harvested and assayed using the Becton Dickinson Mouse Th1/Th2 Cytokine CBA Kit. This kit can be used to measure Interleukin-2 (IL-2), Interleukin-4 (IL-4), Interleukin-5 (IL-5), Interferon-γ (IFN-γ), and Tumor Necrosis Factor-a (TNF-a) protein levels in a single sample.

[2] = system: Primary Human endothelial cells (HUVEC); assay: Endothelial cell migration assay; assay type: cell-based; conditions: 10 micrograms per ml, 22 hours, combination peptide 1:peptide 2 1.10 mole:0.90 mole
HUVEC = assay: Endothelial tube formation assay; assay type: cell-based, human; conditions: 10 micrograms per ml, 20 hours, average tubule length, combination peptide 1:peptide 2 1.10 mole:0.90 mole
Text: Positive control was vehicle only.

[3] = combination 0.95 mole peptide 1 and 1.05 mole peptide 2

| Compound | inhibition of HIV-1 activity on tested T-cells (HIV-1IIIB) | inhibition of HCMV plaque formation as compared to the virus control experiment (HCMV strain AD169) | inhibition of HBV replication as compared to the virus control infection [1] [%] | inhibition of the growth of Streptococcus pneumoniae (Streptococcus pneumoniae) [%] | production of IL-4 in murine spleen cells, suppressed by (murine spleen cells) [%] | change of the production of IL-5 in murine spleen cells (murine spleen cells; [3]) | production of IFN-γ in murine spleen cells, induced by (murine spleen cells; [3]) | production of IL-2 in murine spleen cells, induced by (murine spleen cells; [3]) | production of TNF-alpha in murine spleen cells, induced by (murine spleen cells; [3]) [%] | inhibition of the migration of human endothelial cells [2] [%] | increase of the tube formation of human endothelial cells (HUVEC) [%] | production of IL-4 in murine spleen cells, induced by (murine spleen cells; [3]) [%] |
| --- | --- | --- | --- | --- | --- | --- | --- | --- | --- | --- | --- | --- |
| Cc1cn([C@H]2C[C@H](N=[N+]=[N-])[C@@H](CO)O2)c(=O)[nH]c1=O [AZT] | expected levels of antiviral activity |  |  |  |  |  |  |  |  |  |  |  |
| Nc1nc(O)c2ncn(COC(CO)CO)c2n1 [Ganciclovir, reference compound] |  | expected levels of antiviral activity |  |  |  |  |  |  |  |  |  |  |
| CC(C)(C)NC(=O)[C@@H]1CN(Cc2cccnc2)CCN1C[C@@H](O)C[C@@H](Cc1ccccc1)C(=O)N[C@H]1c2ccccc2C[C@H]1O [indinavir] | expected levels of antiviral activity |  |  |  |  |  |  |  |  |  |  |  |
| Cys-Tyr-Phe-Gln-Asn-Cys-Pro-Arg-Gly-NH2 (CYFQNCPRG-NH2; ends and bridges not checked) [Peptide 2] |  | did not inhibit | 26.3 | 100 | 59.6 | did not significantly change | did not significantly change | did not significantly change | 24.9 | 5 | 4 |  |
| PALPEDGGSGAFPPGHFKDPKRLY [Peptide 1] |  | did not inhibit | 24.3 | 100 |  | did not significantly change | 30.3% | 77.4% | 30.0 | 17 | 2 | 123.9 |
